Measurements taken from US8314112B2 (Novartis AG, priority 2008, dated 2012).

Each compound was assayed against T1, human ALK5 (kinase domain, ALK5 T204D) (Homo sapiens, UniProt P36897, T204D) (assay: ALK5 kinase assay ([33P] phosphate incorporation into casein)). Conditions: casein substrate, 1 μM unlabelled ATP.
T1 construct: The kinase domain of human ALK5 (amino acids 200-503); made in house; host or cells: insect cells (baculovirus)
T1 sequence (P36897 200-503 T204D): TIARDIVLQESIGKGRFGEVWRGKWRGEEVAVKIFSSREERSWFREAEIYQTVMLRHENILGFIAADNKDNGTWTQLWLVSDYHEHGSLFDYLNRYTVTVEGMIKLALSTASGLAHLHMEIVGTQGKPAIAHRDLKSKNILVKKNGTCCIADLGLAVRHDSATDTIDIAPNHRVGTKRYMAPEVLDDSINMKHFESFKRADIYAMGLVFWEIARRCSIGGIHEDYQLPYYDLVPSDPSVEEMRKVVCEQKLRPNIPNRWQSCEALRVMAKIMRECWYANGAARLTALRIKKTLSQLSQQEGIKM
Assay type: biochemical
Outline: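 His-tagged human ALK5 T204D kinase domain (aa 200-503, constitutively active, baculovirus/insect-cell expressed), 50 ng/well, preincubated 10 min with compound and dephosphorylated casein (200 μg/well) in Tris pH 7.4/MgCl2/MnCl2. Reaction started with 1 μM ATP plus [33P]ATP, 50 min at room temperature, EDTA-stopped; casein-bound 33P counted by scintillation after filter capture.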
For CC(=O)NCCCC(=O)Nc1cncc(-c2nc(-c3cccc(C)n3)nc3[nH]ccc23)c1 [Example 52, 4-Acetylamino-N-{5-[2-(6-methyl-pyridin-2-yl)-7H-pyrrolo[2,3-d]pyrimidin-4-yl]-pyridin-3-yl}-butyramide], the IC50 was 435 nM.
With Cc1cccc(-c2cc(-c3cncc(C#CCN4CCN(C)CC4)c3)c3cc[nH]c3n2)n1 [Example 129, 4-{5-[3-(4-Methyl-piperazin-1-yl)-prop-1-ynyl]-pyridin-3-yl}-6-(6-methyl-pyridin-2-yl)-1H-pyrrolo[2,3-b]pyridine] the IC50 was 16 nM.
In the case of Cc1cccc(-c2nc(-c3cncc(NC(=O)CCCN(C)C)c3)c3cc[nH]c3n2)n1 [Example 30, 4-Dimethylamino-N-{5-[2-(6-methyl-pyridin-2-yl)-7H-pyrrolo[2,3-d]pyrimidin-4-yl]-pyridin-3-yl}-butyramide], the IC50 is reported as 64 nM.
For C#Cc1cncc(-c2nc(-c3cccc(C)n3)nc3[nH]ccc23)c1 [Example 119, 4-(5-Ethynyl-pyridin-3-yl)-2-(6-methyl-pyridin-2-yl)-7H-pyrrolo[2,3-d]pyrimidine], the IC50 was 292 nM.
With Cc1cccc(-c2nc(-c3cncc(-c4ccc5c(c4)CNCC5)c3)c3cc[nH]c3n2)n1 [Example 118, 7-{5-[2-(6-Methyl-pyridin-2-yl)-7H-pyrrolo[2,3-d]pyrimidin-4-yl]-pyridin-3-yl}-1,2,3,4-tetrahydro-isoquinoline] the IC50 was 3.9 nM.
For COC(=O)CNCc1ccc(-c2cncc(-c3nc(-c4cccc(C)n4)nc4[nH]ccc34)c2)cc1 [Example 149, (4-{5-[2-(6-Methyl-pyridin-2-yl)-7H-pyrrolo[2,3-d]pyrimidin-4-yl]-pyridin-3-yl}-benzylamino)-acetic acid methyl ester], the IC50 was 8 nM.
For Cc1cccc(-c2cc(-c3cncc(-c4ccc(CN(C)CCO)cc4)c3)c3cc[nH]c3n2)n1 [Example 153, 2-[Methyl-(4-{5-[6-(6-methyl-pyridin-2-yl)-1H-pyrrolo[2,3-b]pyridin-4-yl]-pyridin-3-yl}-benzyl)-amino]-ethanol], the IC50 was 11 nM.
In the case of Cc1cccc(-c2cc(-c3cncc(-c4ccc(C(C)(C)N)cc4)c3)c3cc[nH]c3n2)n1 [Example 114, 1-Methyl-1-(4-{5-[6-(6-methyl-pyridin-2-yl)-1H-pyrrolo[2,3-b]pyridin-4-yl]-pyridin-3-yl}-phenyl)-ethylamine], the IC50 is reported as 4.6 nM.
Cc1cccc(-c2cc(-c3cncc(-c4ccc(CN5CCOCC5)cc4)c3)c3cc[nH]c3n2)n1 [Example 88, 6-(6-Methyl-pyridin-2-yl)-4-[5-(4-morpholin-4-ylmethyl-phenyl)-pyridin-3-yl]-1H-pyrrolo[2,3-b]pyridine] showed an IC50 of 20 nM.
Compound Cc1cccc(-c2nc(-c3cncc(C(=O)NCCCN4CCN(C)CC4)c3)c3cc[nH]c3n2)n1 [Example 25, N-[3-(4-Methyl-piperazin-1-yl)-propyl]-5-[2-(6-methyl-pyridin-2-yl)-7H-pyrrolo[2,3-d]pyrimidin-4-yl]-nicotinamide] has an IC50 of 223 nM.
Cc1cccc(-c2cc(-c3cncc(-c4ccc(CN5CCN(C(C)C)CC5)cc4)c3)c3cc[nH]c3n2)n1 [Example 137, 4-{5-[4-(4-Isopropyl-piperazin-1-ylmethyl)-phenyl]-pyridin-3-yl}-6-(6-methyl-pyridin-2-yl)-1H-pyrrolo[2,3-b]pyridine] gave an IC50 of 9 nM.
With Cc1cccc(-c2nc(-c3cncc(-c4cccc(CNCC(=O)O)c4)c3)c3cc[nH]c3n2)n1 [Example 148, (3-{5-[2-(6-Methyl-pyridin-2-yl)-7H-pyrrolo[2,3-d]pyrimidin-4-yl]-pyridin-3-yl}-benzylamino)-acetic acid] the IC50 was 17 nM.
COc1cccc(-c2cncc(-c3cc(-c4cccc(C)n4)nc4[nH]ccc34)c2)c1 [Example 60, 4-[5-(3-Methoxy-phenyl)-pyridin-3-yl]-6-(6-methyl-pyridin-2-yl)-1H-pyrrolo[2,3-b]pyridine] showed an IC50 of 96 nM.
Compound Cc1cccc(-c2nc(-c3cncc(-c4nnco4)c3)c3cc[nH]c3n2)n1 [Example 83, 2-(6-Methyl-pyridin-2-yl)-4-(5-[1,3,4]oxadiazol-2-yl-pyridin-3-yl)-7H-pyrrolo[2,3-d]pyrimidine] has an IC50 of 557 nM.
CN1CCN(Cc2ccc(-c3cncc(-c4nc(-c5ccccn5)nc5[nH]ccc45)c3)cc2)CC1 [Example 43, 4-{5-[4-(4-Methyl-piperazin-1-ylmethyl)-phenyl]-pyridin-3-yl}-2-pyridin-2-yl-7H-pyrrolo[2,3-d]pyrimidine] showed an IC50 of 6 nM.
For Cc1cccc(-c2cc(-c3cncc(-c4ccc(C(C)(C)NCCO)cc4)c3)c3cc[nH]c3n2)n1 [Example 162, 2-[1-Methyl-1-(4-{5-[6-(6-methyl-pyridin-2-yl)-1H-pyrrolo[2,3-b]pyridin-4-yl]-pyridin-3-yl}-phenyl)-ethylamino]-ethanol], the IC50 was 7 nM.
Compound Cc1cccc(-c2nc(-c3cncc(-c4cccc(O)c4)c3)c3cc[nH]c3n2)n1 [Example 23, 3-{5-[2-(6-Methyl-pyridin-2-yl)-7H-pyrrolo[2,3-d]pyrimidin-4-yl]-pyridin-3-yl}-phenol] has an IC50 of 14 nM.
Cc1cccc(-c2nc(-c3cnccc3C)c3cc[nH]c3n2)n1 [Example 55, 4-(4-Methyl-pyridin-3-yl)-2-(6-methyl-pyridin-2-yl)-7H-pyrrolo[2,3-d]pyrimidine] gave an IC50 of 813 nM.
Compound Cc1cccc(-c2nc(-c3cncc(O)c3)c3cc[nH]c3n2)n1 [Example 80, 5-[2-(6-Methyl-pyridin-2-yl)-7H-pyrrolo[2,3-d]pyrimidin-4-yl]-pyridin-3-ol] has an IC50 of 239 nM.
In the case of Cc1cccc(-c2cc(-c3cncc4ccccc34)c3cc[nH]c3n2)n1 [Example 56, 4-[6-(6-Methyl-pyridin-2-yl)-1H-pyrrolo[2,3-b]pyridin-4-yl]-isoquinoline], the IC50 is reported as < 70 nM.
Cc1cccc(-c2cc(-c3cncc(C#CCN4CCOCC4)c3)c3cc[nH]c3n2)n1 [Example 158, 6-(6-Methyl-pyridin-2-yl)-4-[5-(3-morpholin-4-yl-prop-1-ynyl)-pyridin-3-yl]-1H-pyrrolo[2,3-b]pyridine] gave an IC50 of 27 nM.
Cc1cccc(-c2nc(-c3cncc(-c4cccc(CN5CCN(C(C)C)CC5)c4)c3)c3cc[nH]c3n2)n1 [Example 34, 4-{5-[3-(4-Isopropyl-piperazin-1-ylmethyl)-phenyl]-pyridin-3-yl}-2-(6-methyl-pyridin-2-yl)-7H-pyrrolo[2,3-d]pyrimidine] was tested, and the IC50 was 51 nM.
In the case of Cc1cccc(-c2nc(-c3cncc(-c4ccncc4)c3)c3cc[nH]c3n2)n1 [Example 21, 5-[2-(6-Methyl-pyridin-2-yl)-7H-pyrrolo[2,3-d]pyrimidin-4-yl]-[3,4′]bipyridinyl], the IC50 is reported as 84 nM.
Work on Cc1cccc(-c2cc(-c3cncc(-c4ccc(CN5CCC(F)(F)C5)cc4)c3)c3cc[nH]c3n2)n1 [Example 134, 4-{5-[4-(3,3-Difluoro-pyrrolidin-1-ylmethyl)-phenyl]-pyridin-3-yl}-6-(6-methyl-pyridin-2-yl)-1H-pyrrolo[2,3-b]pyridine] yielded an IC50 of 39 nM.
With Cc1cccc(-c2nc(-c3cncc(C4=CCCC4)c3)c3cc[nH]c3n2)n1 [Example 74, 4-(5-Cyclopent-1-enyl-pyridin-3-yl)-2-(6-methyl-pyridin-2-yl)-7H-pyrrolo[2,3-d]pyrimidine] the IC50 was 163 nM.
For Cc1cccc(-c2nc(-c3cncc(-c4nnn[nH]4)c3)c3cc[nH]c3n2)n1 [Example 104, 2-(6-Methyl-pyridin-2-yl)-4-[5-(1H-tetrazol-5-yl)-pyridin-3-yl]-7H-pyrrolo[2,3-d]pyrimidine], the IC50 was 1030 nM.
CC(=O)N1CC=C(c2cncc(-c3cc(-c4cccc(C)n4)nc4[nH]ccc34)c2)CC1 [Example 121, 1-{5-[6-(6-Methyl-pyridin-2-yl)-1H-pyrrolo[2,3-b]pyridin-4-yl]-3′,6′-dihydro-2′H-[3,4′]bipyridinyl-1′-yl}-ethanone] showed an IC50 of 65 nM.
Compound Cc1cccc(-c2nc(-c3cncc(-c4ccc(F)cc4)c3)c3cc[nH]c3n2)n1 [Example 7, 4-[5-(4-Fluoro-phenyl)-pyridin-3-yl]-2-(6-methyl-pyridin-2-yl)-7H-pyrrolo[2,3-d]pyrimidine] has an IC50 of 45 nM.
In the case of Cc1cccc(-c2nc(-c3cncc(-c4ccc(CN(C)C)cc4)c3)c3cc[nH]c3n2)n1 [Example 38, Dimethyl-(4-{5-[2-(6-methyl-pyridin-2-yl)-7H-pyrrolo[2,3-d]pyrimidin-4-yl]-pyridin-3-yl}-benzyl)-amine], the IC50 is reported as 12 nM.
With Cc1cccc(-c2cc(-c3cncc(-c4ccc(C(C)(C)N)cc4C)c3)c3cc[nH]c3n2)n1 [Example 164, 1-Methyl-1-(3-methyl-4-{5-[6-(6-methyl-pyridin-2-yl)-1H-pyrrolo[2,3-b]pyridin-4-yl]-pyridin-3-yl}-phenyl)-ethylamine] the IC50 was 6.3 nM.
Work on Cc1cccc(-c2nc(-c3cncc(Br)c3)c3cc[nH]c3n2)n1 [Example 16, 4-(5-bromo-pyridin-3-yl)-2-(6-methyl-pyridin-2-yl)-7H-pyrrolo[2,3-d]pyrimidine] yielded an IC50 of 1810 nM.
Compound Cc1cccc(-c2nc(-c3cncc(-c4cnn(C)c4)c3)c3cc[nH]c3n2)n1 [Example 117, 4-[5-(1-Methyl-1H-pyrazol-4-yl)-pyridin-3-yl]-2-(6-methyl-pyridin-2-yl)-7H-pyrrolo[2,3-d]pyrimidine] has an IC50 of 15 nM.
Work on Cc1cccc(-c2nc(-c3cncc(N)c3)c3cc[nH]c3n2)n1 [Example 95, 5-[2-(6-Methyl-pyridin-2-yl)-7H-pyrrolo[2,3-d]pyrimidin-4-yl]-pyridin-3-ylamine] yielded an IC50 of 259 nM.
